# Assay results published in PMC8769378, “Underlining the Importance of Peripheral Protic Functional Groups to Enhance the Proton Exchange of Gd-Based MRI Contrast Agents” (Inorganic Chemistry, 2021).
# Assay: Fit of relaxivity vs pH profiles: proton exchange kinetic and relaxation parameters
# Type: physicochemical
# Conditions: 0.15 M NaCl, 298 K
# Procedure: At pH >3, the r1 values of GdL2 decrease with the increase of pH from 6.6 mM^–1 s^–1 to reach a plateau of 5.1 mM^–1 s^–1 around pH = 7.5. A further increase of the pH results in the slight increase of r1 reaching a maximum around pH = 9.5. Finally, at pH >9.5, another small decrease in r1 is observed. On the other hand, in the case of GdL1, the r1 values are independent from the pH in the range 4.0–7.5, whereas at pH >8.0, r1 increases up to 5.2 mM^–1 s^–1. The r1 values of GdL1 were measured in the pH range 4–10 in order to avoid the hydrolysis of the methyl ester. […] Then, the overall relaxivity, r1, is given by eq 1: [drawing 1] 1 where r1^is, r1^os, and r1^pr are the relaxivity components due to the inner and outersphere water molecules and the −OH group, respectively. r1^pr can be expressed as follows:[26]−[28] [drawing 2] 2
# According to the proposed reaction mechanism, the rate of acid-catalyzed proton exchange of GdL2 and Gd(HL2) is vH = kH[H3O^+][GdL2] and vH = kH[H3O^+][Gd(HL2)], where the kH rate constant characterizes the acid-catalyzed proton exchange processes of GdL2 and Gd(HL2) species. Because of the fast internal rearrangement, the alcoholic −OH and −COOH protons cannot be distinguished, and their lifetime is τp = (kH[H^+])^−1 in both cases. The rate of the base-catalyzed exchange between the alcoholic −OH proton of GdL1 and GdL2 and the bulk is vOH = kOH[OH^–][GdL] and τp = (kOH [OH^–])^−1, where the rate constant kOH characterizes the base-catalyzed proton exchange process for GdL1 and GdL2. Both acid- and base-catalyzed exchange mechanisms require the diffusion-controlled formation of an H-bonded complex and subsequently the rapid separation of the corresponding conjugate acid and base.[29] By considering the proposed reaction mechanism, eq 2 can be rewritten as follows: [drawing 3] 3 where αH = KGdLH–1[H^+] + KGdHLKGdLH–1[H^+]^2, ^GdHLr1^is+os, ^GdLr1^is+os, and ^GdLH–1r1^is+os are the sum of r1^is and r1^os for GdHL, GdL, and GdLH–1 species, respectively. Whereas for GdL2 the experimental data (Figure 1) were fitted to eq 3 (Table 2), in the case of GdL1, eq 3 was modified to account for the formation of GdL1 and Gd(L1)H–1 species and the base-catalyzed exchange of the −OH proton. Thus, the first and fourth terms and kH[H^+] of the denominator in the last term in the brackets were not considered.
# Proton relaxation measurements (1/T1) and the resulting 1/T1 NMRD profiles were measured on a fast-field cycling (FFC) Stelar SmarTracer relaxometer over a continuum of magnetic field strengths from 0.000 24 to 0.25 T (corresponding to 0.01–10 MHz proton Larmor frequencies). The relaxometer operates under computer control with an absolute uncertainty in 1/T1 of ±1%. […] Furthermore, the real temperature inside the probe head was additionally monitored by a Fluke 52 k/j digital thermometer (Fluke, Zürich, Switzerland). The gadolinium concentration was determined by measuring the bulk magnetic susceptibility shifts of the t-BuOH ^1H NMR signal. Additional data in the 20–120 MHz frequency range were obtained with a high field relaxometer (Stelar) equipped with the HTS-110 3T metrology cryogen-free superconducting magnet. […] The pH-dependent relaxivity measurements of GdL1 and GdL2 complexes were carried out by direct titration of the samples (GdL2, 3.0 < pH < 12.5; GdL1, 4 < pH < 10). The pH was adjusted by the stepwise addition of concentrated NaOH or HCl solution. […]
structure (smiles),measurement,setting,value
O=C([O-])CN1CCN(CC(=O)[O-])CCN(CC(O)C(=O)O)CCN(CC(=O)[O-])CC1.[Gd+3] (centres unmarked) [GdL2],^GdHLr1^is+os,20 MHz,5.11 ± 0.08 mM^–1 s^–1
same,^GdLH–1r1^is+os,20 MHz,4.93 ± 0.03 mM^–1 s^–1
same,^GdLr1^is+os,20 MHz,4.85 ± 0.04 mM^–1 s^–1
same,kH × 10^–11,acid-catalyzed proton exchange,1.5 ± 0.2 M^–1 s^–1
same,kOH × 10^–10,base-catalyzed proton exchange,0.17 ± 0.04 M^–1 s^–1
